Test results reported in patent US8883841B2, “Oncogenic ras-specific cytotoxic compound and methods of use thereof” (The Board of Regents of the University of Texas System, priority 2005, dated 2014).
pIC50: −log10 of the molar value. Counter-ions that a name gives are not always drawn. Like-named read-outs stand apart in the source and are kept apart here.

Tests used:
[1] = test system: T29 cells; experiment: cells; conditions: Homo sapiens, T29, read-out: IC50 in T29 cells
[2] = test system: T29Kt1 cells; experiment: cells; conditions: Homo sapiens
[3] = test system: H460 cells; experiment: cells; conditions: Homo sapiens; for IC50: NCI-H460, read-out: IC50 (−LogM), H460, Lung (converted)
[4] = test system: H226B cells; experiment: Cell viability, H226B lung cancer cells; type: cell-based, human; conditions: Homo sapiens, H226B, Lung, read-out: IC50 (−LogM) (converted)
[5] = test system: A549 cells; experiment: Cell viability, A549 lung cancer cells; type: cell-based, human; conditions: Homo sapiens; A549, Lung; read-out: IC50 (−LogM) (converted)
[6] = test system: A549CK8; experiment: Cell viability, A549CK8 lung cancer cells; type: cell-based, human; conditions: Homo sapiens; A549CK8, Lung; read-out: IC50 (−LogM) (converted)
[7] = test system: Hct116; experiment: Cell viability, Hct116 colon cancer cells; type: cell-based, human; conditions: Homo sapiens, HCT-116; Hct116, Colon; read-out: IC50 (−LogM) (converted)
[8] = test system: CT116P53; experiment: Cell viability, CT116P53 colon cancer cells; type: cell-based, human; conditions: Homo sapiens; CT116P53, Colon; read-out: IC50 (−LogM) (converted)
[9] = test system: HKE3; experiment: Cell viability, HKE3 colon cancer cells; type: cell-based, human; conditions: Homo sapiens, HKE3, Colon, read-out: IC50 (−LogM) (converted)
[10] = test system: H322 cells; experiment: Cell viability, H322 lung cancer cells; type: cell-based, human; conditions: Homo sapiens, NCI-H322; H322, Lung; read-out: IC50 (−LogM) (converted)
[11] = test system: H1299 cells; experiment: Cell viability, H1299 lung cancer cells; type: cell-based, human; conditions: Homo sapiens, NCI-H1299; h1299, Lung; read-out: IC50 (−LogM) (converted)
[12] = test system: AsPC-1; experiment: Cell viability, AsPC-1 pancreatic cancer cells; type: cell-based, human; conditions: Homo sapiens; ASPC1, Pancrease; read-out: IC50 (−LogM) (converted)
[13] = test system: DLD1; experiment: Cell viability, DLD1 colon cancer cells; type: cell-based, human; conditions: Homo sapiens, DLD-1; DLD1, Colon; read-out: IC50 (−LogM) (converted)
[14] = test system: Heb46; experiment: Cell viability, Heb46 kidney cells; type: cell-based
[15] = test system: Heb44; experiment: Cell viability, Heb44 kidney cells; type: cell-based
[16] = test system: Capanc-1; experiment: Cell viability, Capanc-1 pancreatic cancer cells; type: cell-based, human; conditions: Homo sapiens, Pancreatic cancer cell; capanc1, Pancrease; read-out: IC50 (−LogM) (converted)
[17] = test system: Sw620; experiment: Cell viability, Sw620 colon cancer cells; type: cell-based, human; conditions: Homo sapiens, SW-620; Sw620, Colon; read-out: IC50 (−LogM) (converted)
[18] = test system: miapac; experiment: Cell viability, miapac pancreatic cancer cells; type: cell-based, human; conditions: Homo sapiens, Pancreatic cancer cell; miapac, Pancrease; read-out: IC50 (−LogM) (converted)
[19] = test system: H2122; experiment: Cell viability, H2122 lung cancer cells; type: cell-based, human; conditions: Homo sapiens, NCI-H2122; H2122, Lung; read-out: IC50 (−LogM) (converted)
[20] = test system: H2009; experiment: Cell viability, H2009 lung cancer cells; type: cell-based, human; conditions: Homo sapiens, NCI-H2009; H2009, Lung; read-out: IC50 (−LogM) (converted)
[21] = test system: H23; experiment: Cell viability, H23 lung cancer cells; type: cell-based, human; conditions: Homo sapiens, NCI-H23; H23, Lung; read-out: IC50 (−LogM) (converted)
[22] = test system: H1933; experiment: Cell viability, H1933 lung cancer cells; type: cell-based, human; conditions: Homo sapiens; H1933, Lung; read-out: IC50 (−LogM) (converted)
[23] = test system: H1395; experiment: Cell viability, H1395 lung cancer cells; type: cell-based, human; conditions: Homo sapiens, NCI-H1395; H1395, Lung; read-out: IC50 (−LogM) (converted)
[24] = test system: H2087; experiment: Cell viability, H2087 lung cancer cells; type: cell-based, human; conditions: Homo sapiens, NCI-H2087; H2087, Lung; read-out: IC50 (−LogM) (converted)
[25] = test system: Ovcar3; experiment: Cell viability, Ovcar3 ovary cancer cells; type: cell-based; conditions: Homo sapiens, OVCAR-3
[26] = test system: Ovcar443; experiment: Cell viability, Ovcar443 ovary cancer cells; type: cell-based
[27] = test system: Hey; experiment: Cell viability, Hey ovary cancer cells; type: cell-based
[28] = test system: Ovca429; experiment: Cell viability, Ovca429 ovary cancer cells; type: cell-based
[29] = test system: SKOV3; experiment: Cell viability, SKOV3 ovary cancer cells; type: cell-based; conditions: Homo sapiens, SK-OV-3
[30] = T29Kt1, read-out: IC50 in T29k cells, Table 1
[31] = NCI-H460, read-out: IC50 in H460 cells, Table 1

Compound	pIC50 [1]	IC50 ([4]; first H226B line)	IC50 ([4]; second H226B line)	IC50 [6]	IC50 [7]	IC50 [8]	IC50 ([9]; first HKE3 line)	IC50 ([9]; second HKE3 line)	IC50 [12]	IC50 [13]	pIC50 [14]	pIC50 [15]	IC50 [16]	IC50 [18]	IC50 [19]	IC50 [20]	IC50 [22]	IC50 [23]	pIC50 [2, 30]	pIC50 [3, 31]	further results
COc1ccc2c(c1)c(CCN)c(C)n2Cc1ccccc1 [Oncrasin K005, [2-(1-benzyl-5-methoxy-2-methyl-1H-indol-3-yl)ethyl]amine hydrochloride]	4.80																				pIC50 ([2]; T29Kt1, read-out: IC50 in T29k cells): 4.80; pIC50 ([3]; NCI-H460, read-out: IC50 in H460 cells): 5.20
OCc1cn(Cc2ccccc2Cl)c2ccccc12 [Oncrasin K006, [1-(2-chlorobenzyl)-1H-indol-3-yl]methanol]		0.00251 µM	0.0398 µM	3.98 µM	0.501 µM	< 31.6 µM	0.126 µM	0.251 µM	3.98 µM	< 31.6 µM	5.70	8.00	12.6 µM	< 31.6 µM	3.98 µM	31.6 µM	15.8 µM	31.6 µM	5.60	7.00	IC50 [5]: 12.6 µM; IC50 [10]: 31.6 µM; IC50 [11]: 10 µM; IC50 [17]: 10 µM; IC50 [21]: 25.1 µM; IC50 [24]: 25.1 µM; pIC50 [25]: 6.20; pIC50 [26]: 5.10; pIC50 [27]: 4.50; pIC50 [28]: 5.00; pIC50 [29]: 5.40; IC50 [3]: 0.1 µM
COC(=O)c1c(C)n(Cc2cccc3ccccc23)c2ccc(O)cc12 [Oncrasin K011, methyl 5-hydroxy-2-methyl-1-(1-naphthylmethyl)-1H-indole-3-carboxylate]	5.50																		5.50	5.80	
CC(C)(C)OC(=O)C1=C(N)N(Cc2ccccc2)C2(C)C=CC(=O)C=C12 (centres unmarked) [Oncrasin K041, tert-butyl 2-amino-1-benzyl-7a-methyl-5-oxo-indole-3-carboxylate]	5.30																		5.30		
OCc1cn(Cc2ccc(Cl)c(Cl)c2)c2ccccc12 [Oncrasin K049, [1-(3,4-dichlorobenzyl)-1H-indol-3-yl]methanol]		0.00251 µM	0.00316 µM	6.31 µM	0.01 µM	< 31.6 µM	0.00251 µM	0.00316 µM	10 µM	< 31.6 µM	7.50	8.00	12.6 µM	< 31.6 µM	0.316 µM	10 µM	100 µM	15.8 µM	6.50	7.50	IC50 [5]: 10 µM; IC50 [10]: 10 µM; IC50 [11]: 10 µM; IC50 [21]: 15.8 µM; IC50 [24]: 7.94 µM; pIC50 [25]: 8.00; pIC50 [26]: 5.00; pIC50 [28]: 5.10; pIC50 [29]: 5.50; IC50 [3]: 0.0316 µM
Cc1ccc(Cn2cc(C=O)c3ccccc32)cc1 [Oncrasin K66, 1H-Indole-3-carboxaldehyde, 1-[(4-methylphenyl)methyl]-]	4.50																		5.40	7.20	
O=[N+]([O-])c1cccc(Cn2cc(CO)c3ccccc32)c1 [Oncrasin K69, 1H-Indole-3-methanol, 1-[(3-nitrophenyl)methyl]-]		0.0316 µM	0.1 µM	1.26 µM	0.316 µM	< 31.6 µM	0.0794 µM	1 µM	7.94 µM	< 31.6 µM	6.50	7.10	31.6 µM	< 31.6 µM	2 µM	< 31.6 µM	< 31.6 µM	< 31.6 µM	6.40	7.40	IC50 [17]: 31.6 µM; IC50 [24]: 31.6 µM; pIC50 [25]: 6.60; pIC50 [27]: > 4.50; pIC50 [28]: 4.50; pIC50 [29]: 5.50; IC50 [3]: 0.0398 µM
O=[N+]([O-])c1ccc(Cn2cc(CO)c3ccccc32)cc1 [Oncrasin K71, 1H-Indole-3-methanol, 1-[(4-nitrophenyl)methyl]-]		0.316 µM	1.58 µM	7.94 µM	3.16 µM	< 31.6 µM	0.398 µM	0.2 µM	10 µM	< 31.6 µM	5.40	6.80	0.126 µM	< 31.6 µM	3.16 µM	< 31.6 µM	31.6 µM	< 31.6 µM	6.80	7.10	IC50 [11]: 10 µM; IC50 [17]: 31.6 µM; IC50 [21]: 31.6 µM; pIC50 [25]: 5.60; pIC50 [27]: 4.50; IC50 [3]: 0.0794 µM
O=Cc1cn(Cc2cc(C(F)(F)F)cc(C(F)(F)F)c2)c2ccccc12 [Oncrasin K76]	5.20																		5.40	5.90	
OCn1cc(Cc2cc(C(F)(F)F)cc(C(F)(F)F)c2)c2ccccc21 [Oncrasin K77]	5.20																		5.10	5.10	
